Series [1] deals with T1, ACE (Oryctolagus cuniculus, UniProt P12822).
T1 sequence (P12822 34-1310): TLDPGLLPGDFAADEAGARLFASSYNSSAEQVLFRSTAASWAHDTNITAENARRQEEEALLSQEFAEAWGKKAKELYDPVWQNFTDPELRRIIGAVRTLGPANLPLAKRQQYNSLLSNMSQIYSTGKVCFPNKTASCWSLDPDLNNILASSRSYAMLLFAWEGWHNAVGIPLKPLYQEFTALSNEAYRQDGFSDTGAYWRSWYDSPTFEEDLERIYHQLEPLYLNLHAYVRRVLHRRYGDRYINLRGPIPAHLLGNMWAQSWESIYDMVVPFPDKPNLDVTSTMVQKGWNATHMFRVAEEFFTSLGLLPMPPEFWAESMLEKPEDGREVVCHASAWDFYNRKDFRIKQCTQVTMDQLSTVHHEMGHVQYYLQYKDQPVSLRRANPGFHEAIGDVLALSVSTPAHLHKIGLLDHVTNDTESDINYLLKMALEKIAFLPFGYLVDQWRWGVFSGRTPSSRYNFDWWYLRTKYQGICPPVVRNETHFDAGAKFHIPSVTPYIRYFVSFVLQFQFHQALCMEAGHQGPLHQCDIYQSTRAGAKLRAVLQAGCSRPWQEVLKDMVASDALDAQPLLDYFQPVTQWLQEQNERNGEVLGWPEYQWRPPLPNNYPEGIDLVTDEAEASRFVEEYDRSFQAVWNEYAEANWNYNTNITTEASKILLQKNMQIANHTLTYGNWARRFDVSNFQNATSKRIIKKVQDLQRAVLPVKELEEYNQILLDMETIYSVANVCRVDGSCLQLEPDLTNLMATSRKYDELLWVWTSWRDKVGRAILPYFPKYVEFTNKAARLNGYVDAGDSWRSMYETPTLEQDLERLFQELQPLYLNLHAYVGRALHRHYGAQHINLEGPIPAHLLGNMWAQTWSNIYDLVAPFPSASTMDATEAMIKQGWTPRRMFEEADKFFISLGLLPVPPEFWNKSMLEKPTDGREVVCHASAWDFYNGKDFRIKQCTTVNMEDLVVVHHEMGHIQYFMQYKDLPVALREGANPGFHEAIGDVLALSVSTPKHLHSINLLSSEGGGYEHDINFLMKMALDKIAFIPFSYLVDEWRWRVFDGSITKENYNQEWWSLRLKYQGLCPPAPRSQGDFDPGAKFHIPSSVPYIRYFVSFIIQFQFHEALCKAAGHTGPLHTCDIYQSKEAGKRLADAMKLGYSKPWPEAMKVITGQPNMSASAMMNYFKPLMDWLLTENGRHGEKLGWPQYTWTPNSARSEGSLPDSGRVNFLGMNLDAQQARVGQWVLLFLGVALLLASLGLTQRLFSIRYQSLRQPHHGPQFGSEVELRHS
Briefly: ACE hydrolysis of synthetic substrate candidates monitored by LC-MS at different incubation times. It is filed as in vitro ADME, rabbit. Set-up: ACE (EC 3.4.15.1, 1 unit) from rabbit lungs; purchased Sigma Chemical Co. (St. Louis, MO, USA); host or cells: rabbit lungs (tissue-derived enzyme). To be noted: 37 °C; for Substrate content (%) 30min / Substrate content (%) 60min / Substrate content (%) 90min / Substrate content (%) 120min / Substrate content (%) 150min / Substrate content (%) 180min: synthetic peptide with ACE, RS% = As/(As+Ap)x100 from SIC peak areas, LC-MS. The method, then:
To confirm the reactivity of the identified peptide candidates towards ACE, the synthetic peptides were individually mixed with ACE and incubated at 37 °C for 3 h. The remaining peptide substrate and the resulting product were analyzed using LC-MS/MS. Meanwhile, the degradation rate of each peptide was monitored every 30 min using LC-MS. The percentage of the remaining substrate (RS%) at each time point was calculated as As/(As + Ap) 100%. In which, As is the selective ion chromatogram (SIC) peak area of remaining substrate and Ap is the peak area of the resulting product. The RS% was further compared with the D/H ratio obtained in Section 2.4.

Series [2] deals with T1, ACE. Briefly: ACE inhibitory (ACEI) assay with HHL as substrate, with and without ACE pre-incubation. To be noted: 37 °C, HA by HPLC-UV 228 nm, mean ± SD, triplicate. It is filed as biochemical, rabbit. Set-up: ACE (EC 3.4.15.1, 1 unit) from rabbit lungs; purchased Sigma Chemical Co. (St. Louis, MO, USA); host or cells: rabbit lungs (tissue-derived enzyme). The method, then:
The ACE inhibitory assay was performed based on the previous report with slight modification. […] The mixture was first incubated at 37 °C statically for 30 min, and then shaken at 200 rpm for another 30 min. The reaction was terminated using 60 µL of HCl (1 M). The hydrolyzed product of HHL, HA, was analyzed by HPLC (Hitachi Chromaster, Tokyo, Japan) equipped with a NUCLEODUR® C18 HTec column (4.6 mm × 250 mm; particle size 5 µm, Macherey-Nagel, Düren, Germany) and quantified by its chromatographic peak area. The mixture was separated using an isocratic elution with the solution containing 24% ACN and 0.1% TFA at a constant flow rate of 1 mL/min. The substrate and product were monitored using a UV-Vis detector at a wavelength of 228 nm. The ACEI activity (%) was calculated as shown below: ACEI activity (%) = [1 – (Ainhibitor/Ablank)] × 100% where Ainhibitor and Ablank were the resulting HA peak areas in the mixtures with and without inhibitors, respectively. Along with the peptide substrate’s ACEI activity, its IC50 value was also determined using a nonlinear regression between ACE inhibition (%), and the logarithm of inhibitor concentrations could be carried out with GraphPad Prism 5.0 (GraphPad Software, Inc., La Jolla, CA, USA).

[3] abbreviates: no ACE pre-incubation, 2.5 mM HHL, ACE 0.05 mU/µL, borate buffer, 30 min static + 30 min 200 rpm, read-out: IC50 (μM) (Regular Assay).
Setting [4] is: peptide pre-incubated with ACE, then HHL assay, read-out: IC50 (μM) (Pre-Incubation).

Read-outs that look alike come from different tables or passages of the source. No end group written: not given here.

What is called IC50 is the concentration needed to halve the response being measured. On to AYFYPELFR [AR-9], for which, in series [1], the “Substrate content (%) 30min” value is 2.40%, the “Substrate content (%) 60min” value is listed as 1.59%, the “Substrate content (%) 90min” value is 0.00% and the “Substrate content (%) 120min” value is reported as 0.00%. In series [1], the “Substrate content (%) 150min” value is listed as 0.00% and the “Substrate content (%) 180min” value was found to be 0.00%. For the same substance, the IC50 in series [2] (setting [3]) is 6.8 ± 0.23 µM. In series [2] (setting [4]), the half-inhibitory concentration (IC50) stood at 25.3 ± 0.96 µM.

Regarding FFVAPFPEVF [FF-10], the “Hydrolysis of synthetic peptide by ACE (result in words)” value in series [1] (synthetic peptide incubated with ACE, 3 h, LC-MS/MS) was “partially hydrolyzed”. Further, in series [1], the “Substrate content (%) 30min” value is reported as 76.08%, the “Substrate content (%) 60min” value is 49.76%, the “Substrate content (%) 90min” value is reported as 34.59% and the “Substrate content (%) 120min” value turned out to be 32.31%. Moreover, in series [1], the “Substrate content (%) 150min” value is on record as 21.80% and the “Substrate content (%) 180min” value is 14.21%. Further, the IC50 in series [2] (setting [3]) was found to be 104 ± 2.47 µM. In series [2] (setting [4]), the IC50 worked out at 44.6 ± 3.06 µM.

Consider HLPLPLLQSW [HW-10], for which, in series [1], the “Substrate content (%) 30min” value is reported as 2.47%, the “Substrate content (%) 60min” value came to 0.00%, the “Substrate content (%) 90min” value is reported as 0.00% and the “Substrate content (%) 120min” value is given as 0.00%. In series [1], the “Substrate content (%) 150min” value is 0.00% and the “Substrate content (%) 180min” value was determined as 0.00%. Moreover, the half-maximal inhibitory concentration (IC50) in series [2] (setting [3]) was found to be 10.6 ± 0.17 µM. Besides, the IC50 in series [2] (setting [4]) is 17.8 ± 0.65 µM.

Consider LHLPLPLL [LL-8], for which, in series [1], the “Substrate content (%) 30min” value is 58.04%, the “Substrate content (%) 60min” value is 37.06%, the “Substrate content (%) 90min” value was 22.61% and the “Substrate content (%) 120min” value came to 11.41%. Besides, in series [1], the “Substrate content (%) 150min” value stood at 7.12% and the “Substrate content (%) 180min” value amounted to 6.82%. In addition, the 50% inhibitory concentration (IC50) in series [2] (setting [3]) was 12.3 ± 0.37 µM. Besides, the IC50 in series [2] (setting [4]) is 71.9 ± 2.19 µM.

Turning to LVYPFPGPIHNSL [LL-13], in series [1], the “Substrate content (%) 30min” value is given as 7.80%, the “Substrate content (%) 60min” value is 7.20%, the “Substrate content (%) 90min” value is recorded as 6.25% and the “Substrate content (%) 120min” value turned out to be 5.68%. Also, in series [1], the “Substrate content (%) 150min” value was found to be 2.64% and the “Substrate content (%) 180min” value worked out at 1.05%. For the same substance, in series [2] (setting [3]), the IC50 is 38.9 ± 2.05 µM. For the same substance, the concentration for half-maximal inhibition (IC50) in series [2] (setting [4]) worked out at 27.3 ± 2.16 µM.

For the substance YVPLGTQ [YQ-7], in series [1], the “Substrate content (%) 30min” value is recorded as 8.35%, the “Substrate content (%) 60min” value was 7.02%, the “Substrate content (%) 90min” value came to 6.54% and the “Substrate content (%) 120min” value turned out to be 6.41%. For the same substance, in series [1], the “Substrate content (%) 150min” value amounted to 6.27% and the “Substrate content (%) 180min” value worked out at 5.83%. Also, the IC50 in series [2] (setting [3]) was found to be 250 ± 7.9 µM. Moreover, the concentration for half-maximal inhibition (IC50) in series [2] (setting [4]) is 189 ± 9.6 µM.

The record behind these values is paper PMC9965520, “An Efficient Peptidomics Screening for Exogenous Substrates and Inhibitory Peptides of the Dipeptidase ACE from Milk Hydrolysate” (Pharmaceutics, 2023).
